Experimental data from PubChem BioAssay AID2060490 (Molecular Pharmacology Branch, DTP, NCI, 2025).

Test system: 885512-296-R-J2-PDC complex spheroid viability
Test: Anticancer human tumor 885512-296-R-J2-PDC patient-derived breast carcinoma cell line growth inhibition [GQUAD]
Conditions: for IC50: curve of first compound; for viability, T/C: stronger effect = lower value
Source text: DNA G-quadruplex Stabilizer Agents in Combinations in Complex Spheroids
A high-throughput screen of multi-cell type tumor spheroids was designed to identify active combinations of DNA G-quadruplex stabilizer agents and targeted small molecules. Complex spheroids include a stromal component modeled by human endothelial cells (HUVEC) and fibroblasts modeled by human mesenchymal stem cells (MSCs). The concentration ranges selected for each drug and investigational agent were based upon clinically achievable concentrations if the clinical Cmax of the agent was known.
Compounds. The drugs and investigational agents: pidnarulex (CX-5461; NSC782164), APTO-253 (NSC789042), BRACO-19 (NSC847499), peposertib (NSC802822), ceralasertib (NSC780249), elimusertib (NSC800525), camonsertib (NSC841442), AZD-1390 (NSC803789), olaparib (NSC753686), talazoparib (NSC767125), ART-558 (NSC835418), sotorasib (NSC818433), MRTX-1133 (NSC836407), SN-38 (NSC673596), topotecan (NSC609699), etoposide (NSC141540), doxorubicin (NSC123127), gemcitabine (NSC613327), 5-fluorouracil (NSC19893), paclitaxel (NSC125973), vemurafenib (NSC761431), panobinostat (NSC761190), R-306465 (JNJ-16241199; NSC773264), adavosertib (NSC754352), TP-3654 (NSC805149), carboplatin (NSC241240), KSQ-4279 (NSC840948), and staurosporine (NSC755774) were obtained from the National Cancer Institute (NCI) Developmental Therapeutics Program Chemical Repository (34). The FDA-approved anticancer drug set is available from the NCI Developmental Therapeutics Program. […] The stock solutions were prepared in dimethyl sulfoxide (DMSO, Sigma-Aldrich, St. Louis, MO, cat. D2650) at 800-fold the tested concentration and stored at -70 degrees C prior to their use. All drugs and investigational agents were tested over a range starting from a high concentration at or near the clinical Cmax and decreasing in half-log increments. If the clinical Cmax for an agent had not been determined, the highest concentration tested was 10 microM.
2.3 Cell Culture. All cells were maintained in an incubator at 37 degrees C and 5% CO2 with 95% humidity. The PDC lines were cultured according to standard operating procedures established by the NCI PDMR. All PDCs were thawed and cultured in Matrigel-coated flasks prepared with a working solution of 1X Ham's F-12 nutrient mix, without supplementation (Invitrogen, cat. 11765054), 100 U/mL penicillin-streptomycin (Invitrogen, cat. 15140122), and 2.5% Matrigel (Corning Inc., cat. 354248) for the first three passages. The 857933-349-R-J2-PDC line was cultured in 6C/Colon 1B media, which includes advanced DMEM/F-12 (Thermo Fisher Scientific, cat. 12634028), 10 mM HEPES (Thermo Fisher Scientific, cat. 15630080), 1X GlutaMAX supplement (Thermo Fisher Scientific, cat. 35050061), 0.1 mg/mL primocin (InvivoGen, cat. ant-pm-2), 10% defined fetal bovine serum, heat inactivated (HyClone Laboratories Inc., cat. SH30070.03HI), 50% L-WRN conditioned media (ATCC, cat. CRL-3276), 1.25 mM N-Acetyl-L-cysteine (Sigma-Aldrich, cat. A9165), 10 mM nicotinamide (Sigma-Aldrich, cat. N0636), 1X B-27 supplement (Thermo Fisher Scientific, cat. 17504044), 1X N-2 supplement (Thermo Fisher Scientific, cat. 17502048), 10 microM Y-27632 dihydrochloride (Tocris Bioscience, cat. 1254), and 50 ng/mL human EGF recombinant protein (Thermo Fisher Scientific, cat. PHG0311). The 485176-168-R4-J1-PDC line was cultured in Panc media, which includes all 6C/Colon 1B media components plus 100 ng/mL human FGF-10 (Thermo Fisher Scientific, cat. 100-26), 500 nM SB-431542 (Selleckchem, cat. S1067), and gastrin (Tocris, cat. 3006).
[…]

[1] = second compound 0.0316 µM, first compound 0.0316 µM
[2] = second compound 0.0316 µM, first compound 0.1 µM
[3] = second compound 0.0316 µM, first compound 0.316 µM
[4] = second compound 0.0316 µM, first compound 1 µM
[5] = second compound 0.0316 µM, first compound 3.16 µM
[6] = second compound 0.0316 µM, first compound 10 µM
[7] = second compound 0.1 µM, first compound 0.0316 µM
[8] = second compound 0.1 µM, first compound 0.1 µM
[9] = second compound 0.1 µM, first compound 0.316 µM
[10] = second compound 0.1 µM, first compound 1 µM
[11] = second compound 0.1 µM, first compound 3.16 µM
[12] = second compound 0.1 µM, first compound 10 µM
[13] = second compound 0.316 µM, first compound 0.0316 µM
[14] = second compound 0.316 µM, first compound 0.1 µM
[15] = second compound 0.316 µM, first compound 0.316 µM
[16] = second compound 0.316 µM, first compound 1 µM
[17] = second compound 0.316 µM, first compound 3.16 µM
[18] = second compound 0.316 µM, first compound 10 µM
[19] = second compound 1 µM, first compound 0.0316 µM
[20] = second compound 1 µM, first compound 0.1 µM
[21] = second compound 1 µM, first compound 0.316 µM
[22] = second compound 1 µM, first compound 1 µM
[23] = second compound 1 µM, first compound 3.16 µM
[24] = second compound 1 µM, first compound 10 µM
[25] = second compound 3.16 µM, first compound 0.0316 µM
[26] = second compound 3.16 µM, first compound 0.1 µM
[27] = second compound 3.16 µM, first compound 0.316 µM
[28] = second compound 3.16 µM, first compound 1 µM
[29] = second compound 3.16 µM, first compound 3.16 µM
[30] = second compound 3.16 µM, first compound 10 µM
[31] = second compound 10 µM, first compound 0.0316 µM
[32] = second compound 10 µM, first compound 0.1 µM
[33] = second compound 10 µM, first compound 0.316 µM
[34] = second compound 10 µM, first compound 1 µM
[35] = second compound 10 µM, first compound 3.16 µM
[36] = second compound 10 µM, first compound 10 µM
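Note: spheroids exposed to the compounds for one week.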
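Throughout, for viability, T/C: percent of tumor spheroid viability relative to DMSO vehicle control wells.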

COc1ccc([C@@H](O)c2cc(-c3ncnc4cc(N5CCOCC5)ccc34)c(F)cc2Cl)nn1 + CN(C)c1ccc(Nc2c3ccc(NC(=O)CCN4CCCC4)cc3nc3cc(NC(=O)CCN4CCCC4)ccc23)cc1
IC50 (second compound 0.0316 µM): 9540 nM
IC50 (second compound 0.1 µM): > 10000 nM
IC50 (second compound 0.316 µM): > 10000 nM
IC50 (second compound 1 µM): > 10000 nM
IC50 (second compound 3.16 µM): 4100 nM
IC50 (second compound 10 µM): < 31.6 nM
viability, T/C [1]: 105%
viability, T/C [2]: 106%
viability, T/C [3]: 104%
viability, T/C [4]: 103%
viability, T/C [5]: 83.8%
viability, T/C [6]: 48.5%
viability, T/C [7]: 121%
viability, T/C [8]: 93.8%
viability, T/C [9]: 92.1%
viability, T/C [10]: 92.7%
viability, T/C [11]: 74.4%
viability, T/C [12]: 53.6%
viability, T/C [13]: 104%
viability, T/C [14]: 98.1%
viability, T/C [15]: 91%
viability, T/C [16]: 86.6%
viability, T/C [17]: 81.6%
viability, T/C [18]: 50.1%
viability, T/C [19]: 93.4%
viability, T/C [20]: 101%
viability, T/C [21]: 98.5%
viability, T/C [22]: 88.1%
viability, T/C [23]: 81.3%
viability, T/C [24]: 51.9%
viability, T/C [25]: 94.6%
viability, T/C [26]: 101%
viability, T/C [27]: 86%
viability, T/C [28]: 63%
viability, T/C [29]: 60.2%
viability, T/C [30]: 34.9%
viability, T/C [31]: 13.4%
viability, T/C [32]: 21.5%
viability, T/C [33]: 19.6%
viability, T/C [34]: 14.6%
viability, T/C [35]: 10.4%
viability, T/C [36]: 6.55%

CC(C)(O)C1CCC(Nc2ccc3ncc(-c4cccc(C(F)(F)F)c4)n3n2)CC1 (stereo unspecified) + Cc1[nH]c2ccc(F)cc2c1-c1nc2c3cccnc3c3ncccc3c2[nH]1
IC50 (second compound 0.0316 µM): > 10000 nM
IC50 (second compound 0.1 µM): > 10000 nM
IC50 (second compound 0.316 µM): > 10000 nM
IC50 (second compound 1 µM): 6910 nM
IC50 (second compound 3.16 µM): < 31.6 nM
IC50 (second compound 10 µM): < 31.6 nM
viability, T/C [1]: 102%
viability, T/C [2]: 92.3%
viability, T/C [3]: 92.1%
viability, T/C [4]: 95.3%
viability, T/C [5]: 99%
viability, T/C [6]: 81.1%
viability, T/C [7]: 106%
viability, T/C [8]: 101%
viability, T/C [9]: 92.8%
viability, T/C [10]: 76.1%
viability, T/C [11]: 84.9%
viability, T/C [12]: 86.9%
viability, T/C [13]: 101%
viability, T/C [14]: 89.6%
viability, T/C [15]: 83.1%
viability, T/C [16]: 92.5%
viability, T/C [17]: 81.8%
viability, T/C [18]: 63.6%
viability, T/C [19]: 69%
viability, T/C [20]: 70.7%
viability, T/C [21]: 73.6%
viability, T/C [22]: 69.9%
viability, T/C [23]: 58.6%
viability, T/C [24]: 45.3%
viability, T/C [25]: 9.24%
viability, T/C [26]: 12.2%
viability, T/C [27]: 10.3%
viability, T/C [28]: 10.4%
viability, T/C [29]: 12.7%
viability, T/C [30]: 2.78%
viability, T/C [31]: 1.94%
viability, T/C [32]: 1.3%
viability, T/C [33]: 2.71%
viability, T/C [34]: 3.75%
viability, T/C [35]: 4.01%
viability, T/C [36]: 1%

CCCS(=O)(=O)Nc1ccc(F)c(C(=O)c2c[nH]c3ncc(-c4ccc(Cl)cc4)cc23)c1F + Cc1[nH]c2ccc(F)cc2c1-c1nc2c3cccnc3c3ncccc3c2[nH]1
IC50 (second compound 0.0316 µM): 393 nM
IC50 (second compound 0.1 µM): 406 nM
IC50 (second compound 0.316 µM): 183 nM
IC50 (second compound 1 µM): 49.3 nM
IC50 (second compound 3.16 µM): < 31.6 nM
IC50 (second compound 10 µM): < 31.6 nM
viability, T/C [1]: 112%
viability, T/C [2]: 98.4%
viability, T/C [3]: 60.7%
viability, T/C [4]: 8.66%
viability, T/C [5]: 3.89%
viability, T/C [6]: 2.96%
viability, T/C [7]: 121%
viability, T/C [8]: 101%
viability, T/C [9]: 64%
viability, T/C [10]: 8.42%
viability, T/C [11]: 2.95%
viability, T/C [12]: 3.79%
viability, T/C [13]: 94.4%
viability, T/C [14]: 74%
viability, T/C [15]: 28.7%
viability, T/C [16]: 2.94%
viability, T/C [17]: 2.46%
viability, T/C [18]: 4.34%
viability, T/C [19]: 68.3%
viability, T/C [20]: 20.9%
viability, T/C [21]: 4.4%
viability, T/C [22]: 2.04%
viability, T/C [23]: 2.3%
viability, T/C [24]: 2.75%
viability, T/C [25]: 4.29%
viability, T/C [26]: 3.06%
viability, T/C [27]: 1.78%
viability, T/C [28]: 2%
viability, T/C [29]: 2.26%
viability, T/C [30]: 2.26%
viability, T/C [31]: 1.32%
viability, T/C [32]: 1.38%
viability, T/C [33]: 1.47%
viability, T/C [34]: 1.65%
viability, T/C [35]: 2.7%
viability, T/C [36]: 3.37%
